The test system of one data set is HT-29 cells. Put plainly: MTT assay, HT-29. It counts as cell-based. To be noted: Homo sapiens. From the text:
(§1) The MTT assay, also known as the 3-(4,5-dimethylthiazol-2-yl)-2,5-diphenyltetrazolium bromide assay, is a colorimetric assay used in biological and biomedical research to determine cell viability and proliferation. The MTT assay works on the assumption that live cells with active metabolism convert MTT into formazan crystals. These crystals are insoluble; however, they can be dissolved in an organic solvent such as DMSO to produce a colorful solution. The color intensity is proportional to the number of viable cells present in the culture.
(§2) BxPC-3, HT-29, and WI-38 cells were seeded on 96-well plates at a density of approximately 8–10 × 10^3 cells per 100 µL medium/well. Cells were allowed to grow for 24 h in controlled conditions (37 °C; 5% CO2). […] The experimental design included nontreated controls and blanks (wells without cells). Following 24 or 72 h of culture with the investigated compounds, 20 μL of MTT tetrazolium salt (5 mg/mL in PBS) was added to each well, and the plates were incubated for 3 h in a humidified environment (37 °C; 5% CO2). The solutions were withdrawn after incubation, and 100 μL of DMSO was added to dissolve the formazan complexes. Afterward, a spectrophotometer (microplate reader Power Wave XS BioTek Instruments, Inc., Winooski, VT, USA) reading at 570 nm was conducted. The experiments were carried out in duplicates.
(§3) GraphPad Prism 7 software was used to calculate the concentration of an MMZ compound reflecting a 50% growth inhibition (IC50). IC50 is defined as a concentration of tested compound that leads to a reduction in cell pool viability by 50% compared to the negative control (accepted as 100%). % cell viability=Absorbance value of treated cells−Absorbance value of blank/(Absorbance value of untreated cells−Absorbance value of blank)×100%
(In general: Formazan colour is commonly taken as a measure of viable cells.)

The test system of another data set is BxPC-3 cells. Put plainly: MTT assay, BxPC-3. It counts as cell-based. Conditions: Homo sapiens.
From the text: as §1, §2, §3

Data set [1] is described as follows: MTT cell viability, WI-38 normal fibroblasts. The class given is cell-based. Conditions: human, read-out: % cell viability ± SD; for viability at 72 h: WI-38, 72 h; for viability at 24 h: WI-38, 24 h. The method, then:
as §2, §3

Another data set can be described thus: solubility (remark). It counts as physicochemical.
The mark [2] stands for this setting: HT-29, 24-h MTT, independent experiment 1, read-out: IC50(1).
[3] abbreviates: HT-29, 24-h MTT, independent experiment 2, read-out: IC50(2).
Where [4] appears, read: HT-29, 24-h MTT, read-out: Mean IC50 ± SD.
Setting [5] is: HT-29, 72-h MTT, independent experiment 1, read-out: IC50(1).
[6] abbreviates: HT-29, 72-h MTT, independent experiment 2, read-out: IC50(2).
Setting [7] is: HT-29, 72-h MTT, read-out: Mean IC50 ± SD.
Setting [8] is: BxPC-3, 24-h MTT, independent experiment 1, read-out: IC50(1).
Where [9] appears, read: BxPC-3, 24-h MTT, independent experiment 2, read-out: IC50(2).
Setting [10] is: BxPC-3, 24-h MTT, read-out: Mean IC50 ± SD.
Where [11] appears, read: BxPC-3, 72-h MTT, independent experiment 1, read-out: IC50(1).
Setting [12] is: BxPC-3, 72-h MTT, independent experiment 2, read-out: IC50(2).
Where [13] appears, read: BxPC-3, 72-h MTT, read-out: Mean IC50 ± SD.
Setting [14] is: WI-38 normal fibroblast cells, compound at IC50 concentration obtained for HT-29 cells.
Setting [15] is: HT-29, 24 h, read-out: Mean IC50 ± SD.
Setting [16] is: HT-29, 72 h, read-out: Mean IC50 ± SD.
Setting [17] is: compound at IC50 concentration estimated for BxPC-3 cells.
[18] abbreviates: compound at IC50 concentration obtained for HT-29 cells.
[19] abbreviates: BXPC-3, 24 h, read-out: IC50(1).
[20] abbreviates: BXPC-3, 24 h, read-out: IC50(2).
The mark [21] stands for this setting: BXPC-3, 24 h, read-out: Mean IC50 ± SD.
Setting [22] is: BXPC-3, 72 h, read-out: IC50(1).
Setting [23] is: BXPC-3, 72 h, read-out: IC50(2).
Setting [24] is: BXPC-3, 72 h, read-out: Mean IC50 ± SD.
[25] abbreviates: WI-38 normal fibroblast cells, compound at IC50 concentration estimated for BxPC-3 cells.

The values below come from publication PMC10609152, “Synthesis, Computational, and Anticancer In Vitro Investigations of Aminobenzylnaphthols Derived from 2-Naphtol, Benzaldehydes, and α-Aminoacids via the Betti Reaction” (Molecules, 2023).

Usually IC50 stands for the concentration that inhibits the measured activity by half. In general, viability refers to the share of living cells, or the viability signal relative to a control.

Like-named read-outs stand apart in the source and are kept apart here.

On to `COC(=O)[C@@H](N[C@@H](c1ccccc1)c1c(O)ccc2ccccc12)C(C)C` (mixture of isomers) [MMZ-33D, (S,S) and (R,R)-methyl ((2-hydroxynaphthalen-1-yl)(phenyl)methyl)-D-valinate], for which the IC50 in the data set on HT-29 cells (setting [2]) is 60.4 µM; with HT-29 cells (setting [3]) it was 61.9 µM; in the data set with HT-29 cells (setting [4]) it was 61.1 ± 1.02 µM; in the data set on HT-29 cells (setting [5]), 32.3 µM; in the data set with HT-29 cells (setting [6]), 43.4 µM; in the data set on HT-29 cells (setting [7]), 37.9 ± 7.86 µM. The IC50 in the data set on BxPC-3 cells (setting [8]) is 47.8 µM; with BxPC-3 cells (setting [9]), 50.8 µM; in the data set with BxPC-3 cells (setting [10]) it was 49.3 ± 2.09 µM; in the data set with BxPC-3 cells (setting [11]), 50 µM; in the data set on BxPC-3 cells (setting [12]) it was 28.7 µM; in the data set with BxPC-3 cells (setting [13]), 39.4 ± 15.1 µM.

Turning to `COC(=O)[C@@H](N[C@@H](c1ccc(Cl)cc1)c1c(O)ccc2ccccc12)C(C)C` (mixture of isomers) [MMZ-39AA, (S,S) and (R,R)-methyl ((4-chlorophenyl)(2-hydroxynaphthalen-1-yl)methyl)-D-valinate], the IC50 in the data set with HT-29 cells (setting [2]) turned out to be 62.1 µM; in the data set on HT-29 cells (setting [3]), 64 µM; in the data set with HT-29 cells (setting [4]) it was 63.1 ± 1.36 µM; in the data set with HT-29 cells (setting [5]) it was 50.6 µM; in the data set on HT-29 cells (setting [6]) it was 65.6 µM; in the data set with HT-29 cells (setting [7]), 58.1 µM. Further, the IC50 with BxPC-3 cells (setting [8]) is 61.4 µM; with BxPC-3 cells (setting [9]), 60.3 µM; in the data set on BxPC-3 cells (setting [10]), 60.8 ± 0.8 µM; with BxPC-3 cells (setting [11]), 44.8 µM; in the data set with BxPC-3 cells (setting [12]) it was 41.6 µM; in the data set on BxPC-3 cells (setting [13]), 43.2 ± 2.26 µM. Also, in data set [1] (setting [14]), the viability at 72 h came out at 64 ± 4.9%.

Take `COC(=O)[C@H](Cc1ccccc1)N[C@H](c1ccccc1)c1c(O)ccc2ccccc12` (mixture of isomers) [MMZ-45B, (S,R) and (R,S)-methyl ((2-hydroxynaphthalen-1-yl)(phenyl)methyl)-L-phenylalaninate]: the IC50 in the data set with HT-29 cells (HT-29, 24 h, read-out: IC50(1)) was 29 µM; with HT-29 cells (HT-29, 24 h, read-out: IC50(2)) it was 34.6 µM; in the data set with HT-29 cells (setting [15]) it was 31.8 ± 3.93 µM; with HT-29 cells (HT-29, 72 h, read-out: IC50(1)), 29.6 µM; with HT-29 cells (HT-29, 72 h, read-out: IC50(2)), 38.7 µM; in the data set on HT-29 cells (setting [16]), 34.1 ± 6.39 µM. Also, the IC50 with BxPC-3 cells (setting [19]) amounted to 58.5 µM; in the data set with BxPC-3 cells (setting [20]) it was 40.5 µM; with BxPC-3 cells (setting [21]), 49.3 ± 13 µM; in the data set on BxPC-3 cells (setting [22]), 35.6 µM; in the data set on BxPC-3 cells (setting [23]), 24.7 µM; in the data set with BxPC-3 cells (setting [24]), 30.1 ± 7.73 µM. Moreover, the viability at 24 h in data set [1] (setting [17]) is 91.73 ± 0.87%. Further, the viability at 72 h in data set [1] (setting [17]) is 86.7 ± 8.14%; in data set [1] (setting [18]), 88.2 ± 1.6%.

Regarding `COC(=O)C[C@H](N[C@@H](c1ccccc1)c1c(O)ccc2ccccc12)C(=O)OC` (mixture of isomers) [MMZ-147B, (S,S) and (R,R)-dimethyl ((2-hydroxynaphthalen-1-yl)(phenyl)methyl)-L-aspartate], the IC50 in the data set with HT-29 cells (setting [2]) was 44.2 µM; in the data set with HT-29 cells (setting [3]) it was 46.8 µM; in the data set on HT-29 cells (setting [4]), 45.5 ± 1.77 µM; in the data set with HT-29 cells (setting [5]), 12.2 µM; with HT-29 cells (setting [6]) it was 17.6 µM; in the data set on HT-29 cells (setting [7]), 14.9 ± 3.8 µM. For the same compound, the IC50 in the data set on BxPC-3 cells (setting [8]) is 44.8 µM; in the data set on BxPC-3 cells (setting [9]), 59.7 µM; in the data set with BxPC-3 cells (setting [11]) it was 69.8 µM; with BxPC-3 cells (setting [12]), 39.3 µM; in the data set on BxPC-3 cells (setting [13]) it was 54.6 µM. In addition, the viability at 24 h in data set [1] (setting [25]) is 69.94 ± 0.21%. In addition, the values for the viability at 72 h in data set [1] (setting [25]) and in data set [1] (setting [14]) were 72.5 ± 4.37% and 86.8 ± 5%, respectively.

For `COC(=O)C[C@H](N[C@H](c1ccccc1)c1c(O)ccc2ccccc12)C(=O)OC` (mixture of isomers) [MMZ-147CE, (S,R) and (R,S)-dimethyl ((2-hydroxynaphthalen-1-yl)(phenyl)methyl)-L-aspartate], the IC50 in the data set on HT-29 cells (HT-29, 24 h, read-out: IC50(1)) amounted to 113 µM; in the data set with HT-29 cells (HT-29, 24 h, read-out: IC50(2)), 110 µM; in the data set with HT-29 cells (setting [15]), 112 ± 2.12 µM; with HT-29 cells (HT-29, 72 h, read-out: IC50(1)), 37.1 µM; in the data set on HT-29 cells (HT-29, 72 h, read-out: IC50(2)) it was 46.1 µM; in the data set with HT-29 cells (setting [16]), 41.6 ± 6.32 µM. Further, the IC50 in the data set on BxPC-3 cells (setting [19]) was determined as 54.1 µM; with BxPC-3 cells (setting [20]), 41 µM; with BxPC-3 cells (setting [21]) it was 47.5 ± 9.26 µM; with BxPC-3 cells (setting [22]), 59.6 µM; in the data set with BxPC-3 cells (setting [23]) it was 34.1 µM; with BxPC-3 cells (setting [24]), 46.8 ± 18 µM. Besides, the viability at 24 h in data set [1] (setting [17]) was 82.5 ± 1.8%. The viability at 72 h in data set [1] (setting [18]) was 66.9 ± 1.08%.

Take `COC(=O)CC[C@H](N[C@@H](c1ccccc1)c1c(O)ccc2ccccc12)C(=O)OC` (mixture of isomers) [MMZ-148B, (S,S) and (R,R)-dimethyl ((2-hydroxynaphthalen-1-yl)(phenyl)methyl)-L-glutamate]: in “solubility (remark)”, the solubility entry is given as “poor solubility”.

Turning to `COC(=O)CC[C@H](N[C@H](c1ccccc1)c1c(O)ccc2ccccc12)C(=O)OC` (mixture of isomers) [MMZ-148C, (S,R) and (R,S)-dimethyl ((2-hydroxynaphthalen-1-yl)(phenyl)methyl)-L-glutamate], the solubility result in “solubility (remark)” was “poor solubility”.

On to `COC(=O)[C@H](CC(C)C)N[C@@H](c1ccccc1)c1c(O)ccc2ccccc12` (mixture of isomers) [MMZ-167C, (S,S) and (R,R)-methyl ((2-hydroxynaphthalen-1-yl)(phenyl)methyl)-L-leucinate], for which the half-inhibitory concentration (IC50) in the data set with HT-29 cells (setting [2]) is 47.7 µM; in the data set with HT-29 cells (setting [3]) it was 50 µM; with HT-29 cells (setting [5]), 27.8 µM; with HT-29 cells (setting [6]) it was 28.4 µM; in the data set with HT-29 cells (setting [7]), 28.1 ± 0.375 µM; in the data set on BxPC-3 cells (setting [8]) it was 71.4 µM. The IC50 turned out to be 61 µM with BxPC-3 cells (setting [9]); 66.2 ± 7.36 µM in the data set on BxPC-3 cells (setting [10]); 32.9 µM in the data set on BxPC-3 cells (setting [11]); 31.2 µM in the data set on BxPC-3 cells (setting [12]); 32.1 ± 1.15 µM in the data set with BxPC-3 cells (setting [13]). The values for the viability at 24 h in data set [1] (setting [25]) and in data set [1] (setting [14]) were 76.8 ± 1.8% and 82.19 ± 0.69%, respectively.

Turning to `O=c1[nH]cc(F)c(=O)[nH]1` [5-Fluorouracil, reference compound], the IC50 with HT-29 cells (setting [2]) is 48.8 µM; in the data set on HT-29 cells (setting [3]), 55.7 µM; in the data set on HT-29 cells (setting [4]) it was 52.3 ± 4.9 µM; in the data set on HT-29 cells (setting [5]), 5.16 µM; in the data set with HT-29 cells (setting [6]), 3.6 µM; in the data set with HT-29 cells (setting [7]) it was 4.38 ± 1.1 µM. Further, the IC50 in the data set with BxPC-3 cells (setting [8]) worked out at 49.4 µM; in the data set on BxPC-3 cells (setting [9]), 28.6 µM; in the data set on BxPC-3 cells (setting [10]), 39 ± 14.7 µM; in the data set with BxPC-3 cells (setting [11]) it was 14.8 µM; in the data set on BxPC-3 cells (setting [12]) it was 12.1 µM; in the data set on BxPC-3 cells (setting [13]) it was 13.4 ± 1.9 µM.
